Source: ChEMBL document CHEMBL5528050, “Discovery of a Novel Series of Homo sapiens Caseinolytic Protease P Agonists for Colorectal Adenocarcinoma Treatment via ATF3-Dependent Integrated Stress Response” (J Med Chem, 2024)
Active and inactive are the calls of the source. The rule behind the calls is not given here.

Columns and labels:
SW480 = assay: cells; settings: Homo sapiens, SW480, 72 h
Description: Antiproliferative activity against human SW480 cells assessed as inhibition of cell growth measured after 72 hrs by CCK-8 method

HCT-15 = assay: cells; settings: Homo sapiens, HCT-15, 72 h
Description: Antiproliferative activity against human HCT-15 cells assessed as inhibition of cell growth measured after 72 hrs by CCK-8 method

Staphylococcus aureus [1] = assay: Antibacterial activity against Staphylococcus aureus ATCC33591 assessed as reduction in bacterial growth; format: functional
[2] = Acute toxicity in BALB/c mouse assessed as reduction in body weight at low dose iv measured upto 21 days relative to control; format: organism-based; set-up: scale not given: the % may be the effect or the level left; settings: in vivo, 504 h, time < 21 day
HCT-116 [3] = assay: Induction of apoptosis in human HCT-116 cells assessed as downregulation of bcl-2 expression at 0.5 to 2 uM measured after 48 hrs by Western blot analysis; format: functional, cell-based; settings: dose 0.5-2 µM
HCT-116 [4] = assay: Induction of apoptosis in human HCT-116 cells assessed as apoptotic rate at low dose measured after 48 hrs by annexin V-FITC/7-AAD based flow cytometry analysis relative to control; format: functional
HCT-116 [5] = assay: Antitumor activity against human HCT-116 cells xenografted in BALB/c nude mouse model assessed as reduction in tumor weight at high dose administered as iv twice weekly and measured upto 21 days; format: functional; settings: time <= 21 day
[6] = Half life in Sprague-Dawley rat at 10 mg/kg, po by LC-MS/MS analysis; format: ADME, organism-based; settings: in vivo
[7] = Toxicity in BALB/c nude mouse assessed as effect on liver at 1.25 to 5 mg/kg, iv administered twice weekly and measured after 21 days by H and E staining based analysis; format: organism-based; settings: in vivo, 504 h, dose 1.25-5 mg/kg, time 21 day
SW-620 = assay: cells; settings: Homo sapiens, SW-620, 72 h
Description: Antiproliferative activity against human SW-620 cells assessed as inhibition of cell growth measured after 72 hrs by CCK-8 method

[8] = Metabolic stability in human liver microsomes assessed as intrinsic clearance at 1 uM measured upto 60 mins in presence of NADPH regenerating system by LC-MS/MS analysis; format: ADME, Microsome; settings: read-out: CLH
HCT-116 [9] = assay: Effect on […] expression in ClpP knockdown human HCT-116 cells at 2 uM measured after 48 hrs by Western blot analysis; format: functional, cell-based
[10] = Toxicity in BALB/c nude mouse assessed as effect on spleen at 1.25 to 5 mg/kg, iv administered twice weekly and measured after 21 days by H and E staining based analysis; format: organism-based; settings: in vivo, 504 h, dose 1.25-5 mg/kg, time 21 day
HCT-116 [11] = assay: Antitumor activity against human HCT-116 cells xenografted in BALB/c nude mouse model assessed as reduction in tumor volume at 5 mg/kg,iv and measured upto 21 days relative to control; format: functional; set-up: scale not given: the % may be the effect or the level left; settings: time <= 21 day
[12] = Acute toxicity in BALB/c mouse assessed as effect on liver at 50 mg/kg, iv administered as single dose measured upto 14 days by H and E staining based analysis; format: organism-based; settings: in vivo, 336 h, time < 14 day
[13] = Metabolic stability in rat liver microsomes assessed as intrinsic clearance at 1 uM measured upto 60 mins in presence of NADPH regenerating system by LC-MS/MS analysis; format: ADME, Microsome; settings: read-out: CLH
[14] = Toxicity in BALB/c nude mouse assessed as effect on lung at 1.25 to 5 mg/kg, iv administered twice weekly and measured after 21 days by H and E staining based analysis; format: organism-based; settings: in vivo, 504 h, dose 1.25-5 mg/kg, time 21 day
[15] = target: ATP-dependent Clp protease proteolytic subunit (Escherichia coli (strain K12)) (UniProt P0A6G7); assay: Agonist activity at Escherichia coli ClpP using Suc-LY-AMC as substrate at 10 to 100 uM measured every 5 mins for 1 hr by fluorescence based analysis; settings: dose 10-100 µM
Sequence of ATP-dependent Clp protease proteolytic subunit (Escherichia coli (strain K12)) (P0A6G7 whole entry): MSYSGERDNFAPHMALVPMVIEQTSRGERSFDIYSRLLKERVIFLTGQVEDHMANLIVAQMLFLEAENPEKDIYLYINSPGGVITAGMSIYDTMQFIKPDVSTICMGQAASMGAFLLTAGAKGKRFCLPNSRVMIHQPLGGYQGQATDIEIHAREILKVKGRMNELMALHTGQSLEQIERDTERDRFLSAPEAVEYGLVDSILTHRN

Staphylococcus aureus [16] = assay: Antibacterial activity against Staphylococcus aureus ATCC25923 assessed as reduction in bacterial growth; format: functional
[17] = MRT (0 to 24 hrs) in Sprague-Dawley rat at 10 mg/kg, iv by LC-MS/MS analysis; format: ADME, organism-based; settings: in vivo
HCT-116 [18] = assay: Induction of apoptosis in human HCT-116 cells assessed as upregulation of bax expression at 0.5 to 2 uM measured after 48 hrs by Western blot analysis; format: functional, cell-based; settings: dose 0.5-2 µM
[19] = Clearance in Sprague-Dawley rat at 10 mg/kg, iv by LC-MS/MS analysis; format: ADME, organism-based; settings: in vivo
[20] = Acute toxicity in BALB/c mouse assessed as survival at 50 mg/kg, iv administered as single dose measured upto 14 days; format: organism-based; settings: in vivo, 336 h, time < 14 day
DLD-1 = assay: cells; settings: Homo sapiens, DLD-1, 72 h
Description: Antiproliferative activity against human DLD-1 cells assessed as inhibition of cell growth measured after 72 hrs by CCK-8 method

Staphylococcus aureus [21] = assay: Antibacterial activity against Staphylococcus aureus ATCC43300 assessed as reduction in bacterial growth; format: functional
HCT-116 [22] = assay: Upregulation of ASNS expression in human HCT-116 cells measured after 48 hrs by Western blot analysis; format: functional, cell-based
Cell membrane = assay: Induction of mitochondrial membrane potential loss in human HCT-116 cells assessed as increase in green fluorescence at high dose measured after 48 hrs by JC-1 staining based microscopy analysis; format: cell membranes
HCT-116 [23] = assay: Upregulation of GCLC expression in human HCT-116 cells measured after 48 hrs by Western blot analysis; format: functional, cell-based
HCT-116 [24] = assay: Upregulation of DDIT3 mRNA expression in human HCT-116 cells by RT-PCR analysis; format: functional, cell-based
HCT-116 [25] = assay: Effect on JUN expression in ClpP knockdown human HCT-116 cells at 2 uM measured after 48 hrs by Western blot analysis; format: functional, cell-based
HCT-116 [26] = assay: Induction of cell cycle arrest in human HCT-116 cells assessed as increase in number of cells at G2 phase at 0.5 uM measured after 48 hrs by PI staining based flow cytometry analysis; format: functional
HCT-116 [27] = assay: Upregulation of ATF3 expression in human HCT-116 cells measured after 48 hrs by Western blot analysis; format: functional, cell-based
[28] = Metabolic stability in rat liver microsomes assessed as half life at 1 uM measured upto 60 mins in presence of NADPH regenerating system by LC-MS/MS analysis; format: ADME, Microsome
HCT-116 [29] = assay: Upregulation of ID1 expression in human HCT-116 cells measured after 48 hrs by Western blot analysis; format: functional, cell-based
[30] = Antiproliferative activity against HEK293 cells assessed as inhibition of cell growth measured after 72 hrs by CCK-8 method; format: toxicity, cell-based; settings: human
HCT-116 [31] = assay: Effect on DDIT3 expression in ClpP knockdown human HCT-116 cells at 2 uM measured after 48 hrs by Western blot analysis; format: functional, cell-based
Staphylococcus aureus [32] = assay: Antibacterial activity against Staphylococcus aureus ATCC29213 assessed as reduction in bacterial growth; format: functional
[33] = Oral bioavailability in Sprague-Dawley rat at 10 mg/kg by LC-MS/MS analysis; format: ADME, organism-based; settings: in vivo
[34] = AUC (0 to 12hrs) in Sprague-Dawley rat at 10 mg/kg, iv by LC-MS/MS analysis; format: ADME, organism-based; settings: in vivo
[35] = Acute toxicity in BALB/c mouse assessed as increase in body weight at 5 mg/kg, iv measured upto 21 days relative to control; format: organism-based; settings: in vivo, 504 h, time < 21 day
[36] = AUC (0 to 12hrs) in Sprague-Dawley rat at 10 mg/kg, po by LC-MS/MS analysis; format: ADME, organism-based; settings: in vivo
[37] = Toxicity in BALB/c nude mouse assessed as effect on heart at 1.25 to 5 mg/kg, iv administered twice weekly and measured after 21 days by H and E staining based analysis; format: organism-based; settings: in vivo, 504 h, dose 1.25-5 mg/kg, time 21 day

N#Cc1cccc(CN2CCC=C(C(=O)NCc3ccc(C(F)(F)F)cc3)C2)c1
IC50 (SW480): 5.4 µM | IC50 (HCT-15): 3.5 µM | MIC (Staphylococcus aureus [1]): > 128 µg/mL | Activity [2]: 10% | Activity (HCT-116 [3]): Active | Activity (HCT-116 [4]): 22% | Activity (HCT-116 [5]): 300 mg | half-life [6]: 4.7 h | Activity [7]: Non-Toxic | IC50 (SW-620): 1.5 µM | CLint scaled at 1 µM [8]: 206 mL/min/kg | Activity (HCT-116 [9]): inactive | Activity [10]: Non-Toxic | Activity (HCT-116 [11]): 83.6% | Activity [12]: Non-Toxic | CLint scaled at 1 µM [13]: 305 mL/min/kg | Activity [14]: Non-Toxic | Activity [15]: inactive | MIC (Staphylococcus aureus [16]): > 128 µg/mL | MRT last [17]: 3.1 h | Activity (HCT-116 [18]): Active | CL [19]: 2.172 mL/min/kg | Activity [20]: Non-Toxic | IC50 (DLD-1): 3.1 µM | MIC (Staphylococcus aureus [21]): > 128 µg/mL | Activity (HCT-116 [22]): Active | Activity (Cell membrane): Active | Activity (HCT-116 [23]): Active | Activity (HCT-116 [24]): Active | Activity (HCT-116 [25]): inactive | Activity (HCT-116 [26]): 20% | Activity (HCT-116 [27]): Active | half-life at 1 µM [28]: 0.3 h | Activity (HCT-116 [29]): Active | IC50 at 72 h [30]: 78.1 µM | Activity (HCT-116 [31]): inactive | MIC (Staphylococcus aureus [32]): > 128 µg/mL | bioavailability [33]: 54.2% | AUC [34]: 1433.6 ng·h/mL | Activity [35]: Toxic | AUC(0-t) [36]: 777 ng·h/mL | Activity [37]: Non-Toxic
